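Five compound concentrations were applied to cells in 96-well plates for 48 hours; endpoints were derived by simple linear interpolation of the resulting dose-response curve. At the TGI there is no net growth.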
Assays:
Test in all cases: NCI tumour cell line growth inhibition, 48 h
SK-MEL-2 melanoma = test system: SK-MEL-2 melanoma
RXF 393 renal = test system: RXF 393 renal
DMS 114 small cell lung = test system: DMS 114 small cell lung
OVCAR-4 ovarian = test system: OVCAR-4 ovarian
HOP-18 NSCLC = test system: HOP-18 NSCLC
SNB-19 CNS = test system: SNB-19 CNS
HT29 colon = test system: HT29 colon
SF-268 CNS = test system: SF-268 CNS
LOX IMVI melanoma = test system: LOX IMVI melanoma
KM20L2 colon = test system: KM20L2 colon
SK-MEL-28 melanoma = test system: SK-MEL-28 melanoma
XF 498 CNS = test system: XF 498 CNS
SK-OV-3 ovarian = test system: SK-OV-3 ovarian
M14 melanoma = test system: M14 melanoma
NCI-H226 lung = test system: NCI-H226 lung
MALME-3M melanoma = test system: MALME-3M melanoma
UO-31 renal = test system: UO-31 renal
K-562 leukemia = test system: K-562 leukemia
KM12 colon = test system: KM12 colon
TK-10 renal = test system: TK-10 renal
U251 CNS = test system: U251 CNS
HOP-62 NSCLC = test system: HOP-62 NSCLC
DLD-1 colon = test system: DLD-1 colon
MOLT-4 leukemia = test system: MOLT-4 leukemia
HCT-116 colon = test system: HCT-116 colon
RPMI-8226 leukemia = test system: RPMI-8226 leukemia
NCI-H23 lung = test system: NCI-H23 lung
CCRF-CEM leukemia = test system: CCRF-CEM leukemia
CAKI-1 renal = test system: CAKI-1 renal
ACHN renal = test system: ACHN renal
UACC-62 melanoma = test system: UACC-62 melanoma
SNB-78 CNS = test system: SNB-78 CNS
EKVX NSCLC = test system: EKVX NSCLC
SW-620 colon = test system: SW-620 colon
SF-295 CNS = test system: SF-295 CNS
NCI-H460 lung = test system: NCI-H460 lung
A549 NSCLC = test system: A549 NSCLC
SR leukemia = test system: SR leukemia
OVCAR-3 ovarian = test system: OVCAR-3 ovarian
UACC-257 melanoma = test system: UACC-257 melanoma
HCC-2998 colon = test system: HCC-2998 colon
DMS 273 small cell lung = test system: DMS 273 small cell lung
OVCAR-8 ovarian = test system: OVCAR-8 ovarian
SK-MEL-5 melanoma = test system: SK-MEL-5 melanoma
LXFL 529 NSCLC = test system: LXFL 529 NSCLC
COLO 205 colon = test system: COLO 205 colon
OVCAR-5 ovarian = test system: OVCAR-5 ovarian
786-0 renal = test system: 786-0 renal
HOP-92 NSCLC = test system: HOP-92 NSCLC
NCI-H522 lung = test system: NCI-H522 lung
SF-539 CNS = test system: SF-539 CNS
SN12C renal = test system: SN12C renal
SNB-75 CNS = test system: SNB-75 CNS
HCT-15 colon = test system: HCT-15 colon
M19-MEL melanoma = test system: M19-MEL melanoma
A498 renal = test system: A498 renal
HL-60(TB) leukemia = test system: HL-60(TB) leukemia
IGROV1 ovarian = test system: IGROV1 ovarian

CC1(C)OC(=O)C(c2cccs2)C(=O)O1
TGI (SK-MEL-2 melanoma): > 100 µM | TGI (RXF 393 renal): > 100 µM | TGI (DMS 114 small cell lung): > 100 µM | TGI (OVCAR-4 ovarian): > 100 µM | TGI (HOP-18 NSCLC): > 100 µM | TGI (SNB-19 CNS): > 100 µM | TGI (HT29 colon): > 100 µM | TGI (SF-268 CNS): > 100 µM | TGI (LOX IMVI melanoma): > 100 µM | TGI (KM20L2 colon): > 100 µM | TGI (SK-MEL-28 melanoma): > 100 µM | TGI (XF 498 CNS): > 100 µM | TGI (SK-OV-3 ovarian): > 100 µM | TGI (M14 melanoma): > 100 µM | TGI (NCI-H226 lung): > 100 µM | TGI (MALME-3M melanoma): > 100 µM | TGI (UO-31 renal): > 100 µM | TGI (K-562 leukemia): > 100 µM | TGI (KM12 colon): > 100 µM | TGI (TK-10 renal): > 100 µM | TGI (U251 CNS): > 100 µM | TGI (HOP-62 NSCLC): > 100 µM | TGI (DLD-1 colon): > 100 µM | TGI (MOLT-4 leukemia): > 100 µM | TGI (HCT-116 colon): > 100 µM | TGI (RPMI-8226 leukemia): > 100 µM | TGI (NCI-H23 lung): > 100 µM | TGI (CCRF-CEM leukemia): > 100 µM | TGI (CAKI-1 renal): > 100 µM | TGI (ACHN renal): > 100 µM | TGI (UACC-62 melanoma): > 100 µM | TGI (SNB-78 CNS): > 100 µM | TGI (EKVX NSCLC): > 100 µM | TGI (SW-620 colon): > 100 µM | TGI (SF-295 CNS): > 100 µM | TGI (NCI-H460 lung): > 100 µM | TGI (A549 NSCLC): > 100 µM | TGI (SR leukemia): > 100 µM | TGI (OVCAR-3 ovarian): > 100 µM | TGI (UACC-257 melanoma): > 100 µM | TGI (HCC-2998 colon): > 100 µM | TGI (DMS 273 small cell lung): > 100 µM | TGI (OVCAR-8 ovarian): > 100 µM | TGI (SK-MEL-5 melanoma): > 100 µM | TGI (LXFL 529 NSCLC): > 100 µM | TGI (COLO 205 colon): > 100 µM | TGI (OVCAR-5 ovarian): > 100 µM | TGI (786-0 renal): > 100 µM | TGI (HOP-92 NSCLC): > 100 µM | TGI (NCI-H522 lung): > 100 µM | TGI (SF-539 CNS): > 100 µM | TGI (SN12C renal): > 100 µM | TGI (SNB-75 CNS): > 100 µM | TGI (HCT-15 colon): > 100 µM

O=C1c2ccccc2-c2ccccc2C(=O)C1(Br)Br
TGI (M19-MEL melanoma): 22.3 µM | TGI (SK-MEL-2 melanoma): 23.6 µM | TGI (RXF 393 renal): 10.9 µM | TGI (DMS 114 small cell lung): 28.5 µM | TGI (OVCAR-4 ovarian): 26.7 µM | TGI (HOP-18 NSCLC): 26.2 µM | TGI (SNB-19 CNS): 31.6 µM | TGI (HT29 colon): 32.7 µM | TGI (SF-268 CNS): 28.5 µM | TGI (LOX IMVI melanoma): 22.2 µM | TGI (KM20L2 colon): 31.8 µM | TGI (SK-MEL-28 melanoma): 20.8 µM | TGI (SK-OV-3 ovarian): 33.7 µM | TGI (M14 melanoma): 17.9 µM | TGI (NCI-H226 lung): 31.7 µM | TGI (MALME-3M melanoma): 13.6 µM | TGI (UO-31 renal): 27.5 µM | TGI (K-562 leukemia): 28.3 µM | TGI (KM12 colon): 31.5 µM | TGI (TK-10 renal): 24.6 µM | TGI (U251 CNS): 29.4 µM | TGI (HOP-62 NSCLC): 32.2 µM | TGI (DLD-1 colon): 20.3 µM | TGI (MOLT-4 leukemia): 7.53 µM | TGI (HCT-116 colon): 21.9 µM | TGI (RPMI-8226 leukemia): 4.65 µM | TGI (NCI-H23 lung): 26.4 µM | TGI (CCRF-CEM leukemia): 9.26 µM | TGI (A498 renal): 30.2 µM | TGI (CAKI-1 renal): 16.7 µM | TGI (ACHN renal): 24.6 µM | TGI (UACC-62 melanoma): 19.6 µM | TGI (SNB-78 CNS): 23.4 µM | TGI (EKVX NSCLC): 27.7 µM | TGI (SW-620 colon): 13 µM | TGI (SF-295 CNS): 29.6 µM | TGI (NCI-H460 lung): 35 µM | TGI (A549 NSCLC): 34.6 µM | TGI (HL-60(TB) leukemia): 6.47 µM | TGI (SR leukemia): 4.95 µM | TGI (OVCAR-3 ovarian): 27.4 µM | TGI (UACC-257 melanoma): 22.8 µM | TGI (IGROV1 ovarian): 27.2 µM | TGI (HCC-2998 colon): 32.2 µM | TGI (DMS 273 small cell lung): 29.8 µM | TGI (OVCAR-8 ovarian): 23.9 µM | TGI (SK-MEL-5 melanoma): 31.1 µM | TGI (LXFL 529 NSCLC): 21.1 µM | TGI (COLO 205 colon): 20.7 µM | TGI (OVCAR-5 ovarian): 32 µM | TGI (786-0 renal): 25.7 µM | TGI (HOP-92 NSCLC): 9.59 µM | TGI (NCI-H522 lung): 4.92 µM | TGI (SF-539 CNS): 23.7 µM | TGI (SN12C renal): 24.2 µM | TGI (SNB-75 CNS): 17.6 µM | TGI (HCT-15 colon): 25 µM

O=Cc1c(O)ccc2ccc(O)c(-c3c(O)ccc4ccc(O)cc34)c12
TGI (M19-MEL melanoma): > 100 µM | TGI (SK-MEL-2 melanoma): > 100 µM | TGI (RXF 393 renal): > 100 µM | TGI (DMS 114 small cell lung): > 100 µM | TGI (OVCAR-4 ovarian): > 100 µM | TGI (HOP-18 NSCLC): > 100 µM | TGI (HT29 colon): > 100 µM | TGI (SF-268 CNS): > 100 µM | TGI (LOX IMVI melanoma): > 100 µM | TGI (KM20L2 colon): > 100 µM | TGI (SK-MEL-28 melanoma): > 100 µM | TGI (SK-OV-3 ovarian): > 100 µM | TGI (M14 melanoma): > 100 µM | TGI (NCI-H226 lung): 95.1 µM | TGI (MALME-3M melanoma): > 100 µM | TGI (UO-31 renal): > 100 µM | TGI (K-562 leukemia): > 100 µM | TGI (KM12 colon): > 100 µM | TGI (TK-10 renal): > 100 µM | TGI (U251 CNS): > 100 µM | TGI (HOP-62 NSCLC): > 100 µM | TGI (DLD-1 colon): > 100 µM | TGI (MOLT-4 leukemia): > 100 µM | TGI (HCT-116 colon): > 100 µM | TGI (RPMI-8226 leukemia): > 100 µM | TGI (NCI-H23 lung): > 100 µM | TGI (CCRF-CEM leukemia): > 100 µM | TGI (A498 renal): > 100 µM | TGI (CAKI-1 renal): > 100 µM | TGI (ACHN renal): > 100 µM | TGI (UACC-62 melanoma): > 100 µM | TGI (SNB-78 CNS): > 100 µM | TGI (SW-620 colon): > 100 µM | TGI (SF-295 CNS): > 100 µM | TGI (NCI-H460 lung): > 100 µM | TGI (A549 NSCLC): > 100 µM | TGI (HL-60(TB) leukemia): > 100 µM | TGI (SR leukemia): > 100 µM | TGI (OVCAR-3 ovarian): > 100 µM | TGI (UACC-257 melanoma): > 100 µM | TGI (IGROV1 ovarian): > 100 µM | TGI (DMS 273 small cell lung): > 100 µM | TGI (OVCAR-8 ovarian): > 100 µM | TGI (SK-MEL-5 melanoma): > 100 µM | TGI (LXFL 529 NSCLC): > 100 µM | TGI (COLO 205 colon): > 100 µM | TGI (OVCAR-5 ovarian): > 100 µM | TGI (786-0 renal): > 100 µM | TGI (HOP-92 NSCLC): > 100 µM | TGI (NCI-H522 lung): > 100 µM | TGI (SF-539 CNS): > 100 µM | TGI (SN12C renal): > 100 µM | TGI (SNB-75 CNS): > 100 µM | TGI (HCT-15 colon): > 100 µM

Reference: PubChem BioAssay (NCI)
